Measured values: US4322420A, “Method of using 4-anilinoquinazoline derivatives as analgesic and anti-inflammatory agents” (Sankyo Company Limited, priority 1978, dated 1982)
Like-named read-outs stand apart in the source and are kept apart here.

Tests used:
[1] = test system: carrageenin-induced oedema of the right hind paw; test: Test for anti-inflammatory activity (carrageenin-induced paw oedema, oral administration); type: in vivo, Male Wistar-Imamichi rats; details: Rattus norvegicus, read-out: ID50 Anti-inflammatory Activity
Experimental: Male Wistar-Imamichi rats, each weighing approximately 150 g, were used in these experiments and were divided into groups, each containing 5 animals. Each of the test compounds listed in Table 1 was administered orally, at various doses, to the rats and then, 30 minutes after oral administration,0.05 ml of a 1% w/v carrageenin suspension was subcutaneously injected into the sole of the right hind paw to induce oedema. The volume of the paw was measured both before and 3 hours after injection of the carrageenin by the method of Winder et al [Arch. Int. Pharmacodyn. […] The difference between the volume of the paw before and after injection was defined as the oedema intensity.
(§1) For both of the above tests, the ID50 was calculated by the method of Litchfield and Wilcoxon [J. Pharmacol. Exptl. Therap.

[2] = test system: bradykinin-induced nociceptive stimulus; test: Test for analgesic activity (bradykinin-induced nociceptive stimulus, oral administration); type: in vivo, female Hartley guinea pigs; details: Cavia porcellus, read-out: ID50 Analgesic Activity
Experimental: This test employs a bradykinin-induced nociceptive stimulus and is a partially modified version of the test described by Deffenu [J. Pharm. Pharmac. […] The test animals were female Hartley guinea pigs having a body weight of from 350 g to 400 g. The guinea pigs were divided into groups, each group containing from 5 to 10 animals. The test animals were cannulated into the carotid artery retrogradely under the anesthesia induced by intraperitoneal injection of 20 mg/kg of pentobarbital. The guinea pigs were allowed to recover from the anesthesia for at least 3 hours before the tests commenced.
The test compounds listed in the following Table 1 were administered orally. Immediately before administration of each test compound and then 15, 30, 60, 90 and 120 minutes after administration, each guinea pig was administered with 0.5 μg of bradykinin through the cannula. Turning of the head or twisting of the front legs upon injection was taken as a sign of nociceptive response. The test compounds were administered at various doses and the inhibition rate was determined accordingly.
as §1

[3] = per os, rats, 0.05 ml of 1% w/v carrageenin 30 min after dosing, paw volume 3 hours after injection, Litchfield and Wilcoxon
[4] = per os, guinea pigs, 0.5 μg bradykinin via carotid cannula before and 15, 30, 60, 90 and 120 min after dosing, Litchfield and Wilcoxon

Structure (SMILES)	ED50 [1] [mg/kg]	ED50 [2] [mg/kg]	ED50 [1, 3] [mg/kg]	ED50 [2, 4] [mg/kg]
CC(=O)Oc1ccccc1C(=O)O [Aspirin, reference compound]	145	280		
FC(F)(F)c1ccc2c(Nc3ccccc3)ncnc2c1 [Compound 17, 4-Anilino-7-trifluoromethylquinazoline]			20	16.5
Clc1ccc2c(Nc3ccccc3)ncnc2c1 [Compound 5, 4-Anilino-7-chloroquinazoline]			28	25
CN(c1ccccc1)c1ncnc2cc(Cl)ccc12 [Compound 55, 7-Chloro-4-(N-methylanilino)quinazoline]			36	50
Cc1cccc(Nc2ccccc2C(=O)O)c1C [Mefenamic acid, reference compound]			50	72
CN(c1ccccc1)c1ncnc2cc(C(F)(F)F)ccc12 [Compound 73, 4-(N-Methylanilino)-7-trifluoromethylquinazoline]			15.5	31
